Results: patent US7521062B2, “Thiosemicarbazones as anti-virals and immunopotentiators” (Novartis Vaccines & Diagnostics, Inc., priority 2002, dated 2009)

Experiments:
[1] = test system: TNF-alpha production by human PBMC; assay: TNF-alpha production by human PBMC (ELISA); assay type: cell-based; details: for TNFa production: cytokine secretion of hPBMC after stimulation with thiosemicarbazone compounds; for SMIP activity (cytokine induction, TNF-alpha and IL-12 p40, % of LPS activity): human PBMC, 5 μM, FIG. 4
Experimental: Candidate small molecule immuno-potentiators can be identified in vitro. Compounds are screened in vitro for their ability to stimulate human peripheral blood mononuclear cells to produce cytokines (e.g. TNF-alpha and IL-12 p40). HCV antivirals were identified having this activity. These small molecule immuno-potentiators have potential utility as adjuvants and immuno-therapeutics.
TNF-alpha production by human PBMC was measured using a commercial ELISA from supernatants of cells stimulated with the indicated compounds for 18 to 24 hours All test compounds were used at a final concentration of 5 μM/ml. Untreated PBMC (Cells) and LPS (0.1 ng/ml), CPG (10 ng/ml) and/or ALTTE (5 μM/ml) treated PBMC served as negative and positive controls, respectively.
Table 2. Cytokine secretion of hPBMC after stimulation with thiosemicarbazone compounds.
High Throughput Screening (ITS) for small molecule immune potentiators; SMIPs: Attention is drawn to FIG. 3. Various compounds were evaluated for their ability to produce cytokines in response to the small molecule compounds using a modified sandwich ELISA. Compounds are screened for their TNF inducing. “Hits” are selected based on their TNF-inducing activity relative to an optimal dose a strong TNF inducer. The robustness of the assay and low backgrounds have allowed for the routine selection of hits with ˜10% of this activity which is normally between 5-10× background (cells alone). Selected hits are then subjected to confirmation for their ability to induce cytokines from multiple donors at decreasing concentrations. Those compounds with consistent activity at or below 5 μM are considered confirmed.
Thiosemicarbazones compounds with and without anti-HCV activity were screened for their capacity to activate immune cells. Structural analogs of this scaffold have been tested for their ability to induce cytokines from human PBMC and murine splenocytes. […] All compounds were tested at a final concentration of 5 μM except for poly I:C (PIC) and the 1806 oligodinucleotide (CpG) which were used at 10 μg/ml and 10 ng/ml respectively.

[2] = test system: HCV replicon RNA in Huh-11-7 or Huh 9-13 cells; assay: HCV replicon cell based assay (quantification of HCV replicon RNA by RT-PCR, normalized to GAPDH); details: separate/independent assays
Experimental: Quantification of HCV replicon RNA in Cell Lines (HCV Cell Based Assay):
Cell lines, including Huh-11-7 or Huh 9-13, harboring HCV replicons (Lohmann, et al Science 285:110-113, 1999) are seeded at 5×10^3 cells/well in 96 well plates and fed media containing DMEM (high glucose), 10% fetal calf serum, penicillin-streptomycin and non-essential amino acids. Cells are incubated in a 5% CO2 incubator at 37° C. At the end of the incubation period, total RNA is extracted and purified from cells using Qiagen Rneasy 96 Kit (Catalog No. 74182). To amplify the HCV RNA so that sufficient material can be detected by an HCV specific probe (below), primers specific for HCV (below) mediate both the reverse transcription (RT) of the HCV RNA and the amplification of the cDNA by polymerase chain reaction (PCR) using the TaqMan One-Step RT-PCR Master Mix Kit (Applied Biosystems catalog no. 4309169). […]
Detection of the RT-PCR product was accomplished using the Applied Biosystem (ABI) Prism 7700 Sequence Detection System (SDS) that detects the fluorescence that is emitted when the probe, which is labeled with a fluorescence reporter dye and a quencher dye, is processed during the PCR reaction. The increase in the amount of fluorescence is measured during each cycle of PCR and reflects the increasing amount of RT-PCR product. […] The data is analyzed using the ABI SDS program version 1.7. […]

Structure (SMILES) | TNFa production [1] [ng/10^6 cells/ml] | SMIP activity (cytokine induction, TNF-alpha and IL-12 p40, % of LPS activity) [1] | anti-HCV activity [2]
NC(=S)N/N=C/c1cccc(OCc2ccccc2)c1 [Example 7, 3-[(phenylmethyl)oxy]benzaldehydethiosemicarbazone] | 0 | – | –
NC(=S)N/N=C/c1ccccn1 [Example 113, pyridine-2-carbaldehydethiosemicarbazone] | 2.34 | potent SMIP activity | weak or absent anti-HCV effects
NC(=S)N/N=C/c1ccc(NCCc2ccc(Cl)cc2)c([N+](=O)[O-])c1 [Example 87, 4-{[2-(4-chlorophenyl)ethyl]amino}-3-nitrobenzaldehydethiosemicarbazone] | 1.25 | – | –
NC(=S)N/N=C/c1ccc(-c2cccc(Cl)c2)o1 [Example 12, 5-(3-chlorophenyl)furan-2-carbaldehyde thiosemicarbazone] | 2.32 | – | –
NC(=S)N/N=C/c1ccc(NCCc2cccc(Cl)c2)c([N+](=O)[O-])c1 [Example 86, 4-{[2-(3-chlorophenyl)ethyl]amino}-3-nitrobenzaldehydethiosemicarbazone] | 5 | – | –
Cc1ccc2c(c1)c1c(n2C)/C(=N/NC(N)=S)CCC1 [Example 115, (1E)-6,9-dimethyl-2,3,4,9-tetrahydro-1H-carbazol-1-onethiosemicarbazone] | 1.25 | – | –
COc1cc(/C=N/NC(N)=S)cc(Br)c1OCc1ccccc1F [Example 39, 3-bromo-4-{[(2-fluorophenyl)methyl]oxy}-5-(methyloxy)benzaldehydethiosemicarbazone] | 5 | – | –
C/C(=N\NC(N)=S)c1sc(-c2ncc(C(F)(F)F)cc2Cl)nc1C [Example 114] | 1.7 | – | –
CCN(CC)c1ccc(/C=N/NC(N)=S)c(OCc2ccc(Cl)cc2)c1 [Example 29, 2-{[(4-chlorophenyl)methyl]oxy}-4-(diethylamino)benzaldehydethiosemicarbazone] | – | possess both SMIP and anti-HCV activity | possess both SMIP and anti-HCV activity
